Structures can show the parent of a compound that is named as a salt.
Legend:
Type in all cases: cell-based
Settings in all cases: β-lactam (CXA-101/Ceftolozane or ceftazidime) fixed at 4 μg/mL; compared with Avibactam (comparator compound CCC)
[1] = system: bacterial strains that express KPC β-lactamase (isogenic E. coli strain KPC-2); test: Synergy MIC (sMIC) assay, KPC strain
From the text: (§1) A set of β-lactamase expressing isogenic E. coli strains was constructed by cloning a β-lactamase gene into a customized derivative of pBR322 (GenBank Accession Number J01749) and transforming the engineered plasmids into E. coli. The NdeI restriction site within the plasmid backbone of pBR322 was removed to generate pBR322 ΔNdeI. The pBR322 ΔNdeI vector itself, minus the blaTEM-1 gene, was amplified using two primers: (1) pBR-Pbla 5′-[…]-3, SEQ ID 1, a primer with an engineered NdeI restriction site at the 3′ end of the blaTEM-1 promoter and (2) pBR-vec-1 5′-[…]-3′, SEQ ID 2, a primer with an engineered BamHI restriction site at the 3′ end of the blaTEM-1 open reading frame. The chloramphenicol resistance gene, cat, was generated by PCR amplification from pKD3 (GenBank Accession Number AY048742) using primers with an engineered NdeI restriction site at the 5′ end (Pbla-cat 5′-[…]-3′, SEQ ID 3) and an engineered BamHI restriction site at the 3′ end (Vec-1-cat 5′-[…]-3′, SEQ ID 4) of the resistance gene. The two PCR products, pBR322 ΔNdeI and cat were ligated together generating pBR-CBST (pBR322 ΔNdeI ΔTEM-1::cat Seq. ID 5) which retains both the pBR322 tetracycline resistance cassette, tetA, and the plasmid origin of replication but the blaTEM-1 gene was replaced by the cat gene.
(§2) Using this engineering strategy a number of plasmids producing β-lactamase genes from different classes (see below) were generated using synthetic genes with an engineered NdeI restriction site at the 5′ end and BamHI restriction site at the 3′ end of each gene (GenScript). Both the synthetic β-lactamase genes and cat gene were ligated into the NdeI/BamHI sites of the pBR322 ΔNdeI PCR product and transformed into electrocompetent E. coli ElectroMax DH10B (Invitrogen/Life Technologies). E. coli DH10B harboring the recombinant plasmids were selected on LB agar (supplemented with 25 μg/mL tetracycline) and single isolated colonies were then inoculated into 5 mL LB media (supplemented with 25 μg/mL tetracycline), and incubated at 37° C. with aeration (250 rpm) for 18 hrs. The cultures were frozen back at −80° C. in 20% glycerol. The DNA sequence of the cloned β-lactamase genes was confirmed. The β-lactamase gene expression in the recombinant E. coli strains was driven by the blaTEM-1 promoter in the pBR-CBST plasmid and was characterized by MIC profiling of the E. coli recombinant strains against comparator β-lactam/BLI combinations in broth microdilution assay.
(§3) The synergy MIC (sMIC) assay determines the concentration of the BLI required to potentiate the activity of a fixed concentration of a β-lactam antibiotic against β-lactamase producing bacterial strains. The experimental protocol was performed according to Clinical and Laboratory Standards Institute (CLSI) guidelines with modifications as described below (CLSI guidelines can be derived from the CLSI document M07-A9 published in January 2012: “Methods for Dilution Antimicrobial Susceptibility Tests for Bacteria That Grow Aerobically; Approved Standard-Ninth Edition”). The assay is set-up by serially diluting the BLI across 11 of the 12 wells in each row of a 96-well broth microdilution assay plate, adding the β-lactam at a fixed concentration to all wells in the assay plate, inoculating the assay plate with bacterial strains, and determining the lowest concentration of BLI required to inhibit overnight bacterial growth.
(§4) To prepare for MIC testing, frozen glycerol stocks of laboratory engineered, isogenic E. coli strains, which contain cloned β-lactamase expressing plasmids were used to streak for isolated colonies on rich, selective LB agar supplemented with 25 μg/mL tetracycline to maintain the plasmid. All strains were incubated at 37° C. for 18-24 hrs.
(§5) On the day of testing, primary cultures were started by scraping off 5-10 colonies from the tetracycline supplemented LB plates containing engineered strains. […]

[2] = system: bacterial strains that express SHV-12 β-lactamase (isogenic E. coli strain); test: Synergy MIC (sMIC) assay, SHV-12 strain
From the text: as §1, §2, §3, §4, §5

[3] = system: bacterial strains that express OXA-15 β-lactamase (isogenic E. coli strain); test: Synergy MIC (sMIC) assay, OXA-15 strain
From the text: as §1, §2, §3, §4, §5

[4] = system: bacterial strains that express P99 β-lactamase (isogenic E. coli strain P99 AmpC); test: Synergy MIC (sMIC) assay, P99 AmpC strain
From the text: as §1, §2, §3, §4, §5

[5] = system: bacterial strains that express CTX-M-15 β-lactamase (isogenic E. coli strain); test: Synergy MIC (sMIC) assay, CTX-M-15 strain
From the text: as §1, with “cat gene. […]” for “cat gene.”

## NC(=O)c1cc([C@@H]2CC[C@@H]3CN2C(=O)N3OS(=O)(=O)O)no1 [Compound 103, (2S,5R)-2-(5-carbamoylisoxazol-3-yl)-7-oxo-1,6-diazabicyclo[3.2.1]octan-6-yl hydrogen sulfate]
[1]
  activity against bacterial strains that express KPC β-lactamase relative to Avibactam (sMIC): as active or more active than Avibactam
[2]
  activity against bacterial strains that express SHV-12 β-lactamase relative to Avibactam (sMIC): as active as Avibactam

## CNc1nnc([C@@H]2CC[C@@H]3CN2C(=O)N3OS(=O)(=O)O)o1 [Compound 203, (2S,5R)-2-(5-(methylamino)-1,3,4-oxadiazol-2-yl)-7-oxo-1,6-diazabicyclo[3.2.1]octan-6-yl hydrogen sulfate]
[1]
  activity against bacterial strains that express KPC β-lactamase relative to Avibactam (sMIC): as active or more active than Avibactam

## CCc1nnc([C@@H]2CC[C@@H]3CN2C(=O)N3OS(=O)(=O)O)o1 [Compound 201, (2S,5R)-2-(5-ethyl-1,3,4-oxadiazol-2-yl)-7-oxo-1,6-diazabicyclo[3.2.1]octan-6-yl hydrogen sulfate]
[1]
  activity against bacterial strains that express KPC β-lactamase relative to Avibactam (sMIC): as active or more active than Avibactam
[3]
  activity against bacterial strains that express OXA-15 β-lactamase relative to Avibactam (sMIC): more active than Avibactam

## O=C1N2C[C@@H](CC[C@H]2c2ncns2)N1OS(=O)(=O)O [Compound 500, (2S,5R)-7-oxo-2-(1,2,4-thiadiazol-5-yl)-1,6-diazabicyclo[3.2.1]octan-6-yl hydrogen sulfate]
[4]
  activity against bacterial strains that express P99 β-lactamase relative to Avibactam (sMIC): as active as Avibactam

## O=C1N2C[C@@H](CC[C@H]2c2nnc(C3CNCCO3)o2)N1OS(=O)(=O)O (stereo partly drawn) [Compound 206, (2S,5R)-2-(5-(morpholin-2-yl)-1,3,4-oxadiazol-2-yl)-7-oxo-1,6-diazabicyclo[3.2.1]octan-6-yl hydrogen sulfate]
[4]
  activity against bacterial strains that express P99 β-lactamase relative to Avibactam (sMIC): as active as Avibactam
[1]
  activity against bacterial strains that express KPC β-lactamase relative to Avibactam (sMIC): as active or more active than Avibactam
[3]
  activity against bacterial strains that express OXA-15 β-lactamase relative to Avibactam (sMIC): more active than Avibactam

## Cc1nnc([C@@H]2CC[C@@H]3CN2C(=O)N3OS(=O)(=O)O)o1 [Compound 200, (2S,5R)-2-(5-methyl-1,3,4-oxadiazol-2-yl)-7-oxo-1,6-diazabicyclo[3.2.1]octan-6-yl hydrogen sulfate]
[1]
  activity against bacterial strains that express KPC β-lactamase relative to Avibactam (sMIC): as active or more active than Avibactam
[2]
  activity against bacterial strains that express SHV-12 β-lactamase relative to Avibactam (sMIC): as active as Avibactam
[3]
  activity against bacterial strains that express OXA-15 β-lactamase relative to Avibactam (sMIC): more active than Avibactam

## O=C1N2C[C@@H](CC[C@H]2c2nncs2)N1OS(=O)(=O)O [Compound 300, (2S,5R)-7-oxo-2-(1,3,4-thiadiazol-2-yl)-1,6-diazabicyclo[3.2.1]octan-6-yl hydrogen sulfate]
[4]
  activity against bacterial strains that express P99 β-lactamase relative to Avibactam (sMIC): as active as Avibactam
[5]
  activity against bacterial strains that express CTX-M-15 β-lactamase relative to Avibactam (sMIC): as active as Avibactam
[1]
  activity against bacterial strains that express KPC β-lactamase relative to Avibactam (sMIC): as active or more active than Avibactam
[2]
  activity against bacterial strains that express SHV-12 β-lactamase relative to Avibactam (sMIC): as active as Avibactam
[3]
  activity against bacterial strains that express OXA-15 β-lactamase relative to Avibactam (sMIC): more active than Avibactam

## NC(=O)c1noc([C@@H]2CC[C@@H]3CN2C(=O)N3OS(=O)(=O)O)n1 [Compound 401, (2S,5R)-2-(3-carbamoyl-1,2,4-oxadiazol-5-yl)-7-oxo-1,6-diazabicyclo[3.2.1]octan-6-yl hydrogen sulfate]
[1]
  activity against bacterial strains that express KPC β-lactamase relative to Avibactam (sMIC): as active or more active than Avibactam
[2]
  activity against bacterial strains that express SHV-12 β-lactamase relative to Avibactam (sMIC): as active as Avibactam

## NCc1nnc([C@@H]2CC[C@@H]3CN2C(=O)N3OS(=O)(=O)O)s1 [Compound 301, (2S,5R)-2-(5-(aminomethyl)-1,3,4-thiadiazol-2-yl)-7-oxo-1,6-diazabicyclo[3.2.1]octan-6-yl hydrogen sulfate]
[4]
  activity against bacterial strains that express P99 β-lactamase relative to Avibactam (sMIC): as active as Avibactam
[1]
  activity against bacterial strains that express KPC β-lactamase relative to Avibactam (sMIC): as active or more active than Avibactam
[2]
  activity against bacterial strains that express SHV-12 β-lactamase relative to Avibactam (sMIC): as active as Avibactam
[3]
  activity against bacterial strains that express OXA-15 β-lactamase relative to Avibactam (sMIC): more active than Avibactam

## CN1CCC(c2nnc([C@@H]3CC[C@@H]4CN3C(=O)N4OS(=O)(=O)O)o2)CC1 [Compound 204, (2S,5R)-2-(5-(1-methylpiperidin-4-yl)-1,3,4-oxadiazol-2-yl)-7-oxo-1,6-diazabicyclo[3.2.1]octan-6-yl hydrogen sulfate]
[4]
  activity against bacterial strains that express P99 β-lactamase relative to Avibactam (sMIC): as active as Avibactam
[1]
  activity against bacterial strains that express KPC β-lactamase relative to Avibactam (sMIC): as active or more active than Avibactam
[3]
  activity against bacterial strains that express OXA-15 β-lactamase relative to Avibactam (sMIC): more active than Avibactam

## CCOC(=O)c1noc([C@@H]2CC[C@@H]3CN2C(=O)N3OS(=O)(=O)O)n1 [Compound 402, ethyl 5-((2S,5R)-7-oxo-6-(sulfooxy)-1,6-diazabicyclo[3.2.1]octan-2-yl)-1,2,4-oxadiazole-3-carboxylate]
[2]
  activity against bacterial strains that express SHV-12 β-lactamase relative to Avibactam (sMIC): as active as Avibactam

## CN1CCN(c2nnc([C@@H]3CC[C@@H]4CN3C(=O)N4OS(=O)(=O)O)o2)CC1 [Compound 205, (2S,5R)-2-(5-(4-methylpiperazin-1-yl)-1,3,4-oxadiazol-2-yl)-7-oxo-1,6-diazabicyclo[3.2.1]octan-6-yl hydrogen sulfate]
[1]
  activity against bacterial strains that express KPC β-lactamase relative to Avibactam (sMIC): as active or more active than Avibactam
[3]
  activity against bacterial strains that express OXA-15 β-lactamase relative to Avibactam (sMIC): more active than Avibactam

## O=C1N2C[C@@H](CC[C@H]2c2nnc(N3CCNCC3)s2)N1OS(=O)(=O)O [Compound 302, (2S,5R)-7-oxo-2-(5-(piperazin-1-yl)-1,3,4-thiadiazol-2-yl)-1,6-diazabicyclo[3.2.1]octan-6-yl hydrogen sulfate]
[1]
  activity against bacterial strains that express KPC β-lactamase relative to Avibactam (sMIC): as active or more active than Avibactam
[2]
  activity against bacterial strains that express SHV-12 β-lactamase relative to Avibactam (sMIC): as active as Avibactam
[3]
  activity against bacterial strains that express OXA-15 β-lactamase relative to Avibactam (sMIC): more active than Avibactam

## N#Cc1cc([C@@H]2CC[C@@H]3CN2C(=O)N3OS(=O)(=O)O)no1 [Compound 102, (2S,5R)-2-(5-cyanoisoxazol-3-yl)-7-oxo-1,6-diazabicyclo[3.2.1]octan-6-yl hydrogen sulfate]
[1]
  activity against bacterial strains that express KPC β-lactamase relative to Avibactam (sMIC): as active or more active than Avibactam

## O=C1N2C[C@@H](CC[C@H]2c2ccon2)N1OS(=O)(=O)O [Compound 101, (2S,5R)-2-(isoxazol-3-yl)-7-oxo-1,6-diazabicyclo[3.2.1]octan-6-yl hydrogen sulfate]
[4]
  activity against bacterial strains that express P99 β-lactamase relative to Avibactam (sMIC): as active as Avibactam
[5]
  activity against bacterial strains that express CTX-M-15 β-lactamase relative to Avibactam (sMIC): as active as Avibactam
[1]
  activity against bacterial strains that express KPC β-lactamase relative to Avibactam (sMIC): as active or more active than Avibactam

From US8969570B2, “Beta-lactamase inhibitors” (priority 2012, dated 2015)
